The text below walks through data of patent US6268385A, “Dry blend pharmaceutical formulations” (priority 2000, dated 2001).

Each structure is given as a SMILES string.

Holding throughout (assay type): physicochemical
Data set [1] is described as follows: Solubility assessment as a function of HPβCD concentration. Here is the method: Solubility studies were performed by the addition of a known mass of 5(6)-methoxy-2-[[(4-methoxy-3,5-dimethyl-2-pyridinyl)-methyl]sulfinyl]-1H- benzimidazole and/or HP CD to a given volume of solvent system. Solubilities were determined by observation, as the maximum concentration at which 5(6)-methoxy-2-[[(4-methoxy-3,5-dimethyl-2-pyridinyl)-methyl]sulfinyl]-1H- benzimidazole completely dissolved. Additionally, concentrations of 5(6)-methoxy-2-[[(4-methoxy-3,5-dimethyl-2-pyridinyl)-methyl]sulfinyl]-1H- benzimidazole and HP C D at set molar ratios were solubilized in systems of high pH (adjusted as high as 12.2, with 1N NaOH), the pH was adjusted (using 2N HCl) in a stepwise downward manner until precipitation occurred.
The solubility of 5(6)-methoxy-2-[[(4-methoxy-3,5-dimethyl-2-pyridinyl)-methyl]sulfinyl]-1H- benzimidazole was assessed as a function of HPβCD concentration in water.
The procedure according to Example 86 was repeated except that water with a borate buffer (pH of 8) was employed.
The procedure according to Example 86 was repeated except that water with a phosphate buffer (pH of 11) was employed.

Data set [2] can be described thus: FT-Raman quantitation of 5-/6-methoxy isomers in omeprazole API, partial least squares. Here is the method:
Nicolet Instruments Corp., Madison, Wis.). The present method is conducted in three steps: preparation of standards, establishing a standard curve, and analysis of samples. Typically, a minimum of 4 to 5 standards are prepared. […] In addition to the USP standard, it is necessary to use a standard which is very low in 5-methoxy isomer concentration, preferably in pure form, one which has a high concentration of 5-methoxy isomer such as in the range of about 40%, and a series of at least two other standards distributed over the range from about 5% to about 25%. To establish the standard curve, each standard is run in at least triplicate using the step and repeat sampling device operating in the continuous mode with 15 replicates for each standard preparation and 500 scans per replicate, using a resolution of 2 cm^-1, and a laser power of about 0.7 watt, under instrumental parameters set to generate an acceptable S/N. […] Using such an algorithm, the area percent of the 6-methoxy isomer of each standard having both the 5- and 6-methoxy isomer is determined. The standard deviation for each set of replicates is less than about 0.7% and the average standard deviation for the average of all runs and replicates of a given standard is less than about 0.7% or the resulting data should be investigated. […] Correlation coefficients should be at or above about 0.98 among all standards. Each API sample is then analyzed using the method similar to that described for establishing the standards, except at least triplicate preparations with at least five replicates per sample preparation, and at least 100 scans per replicate with triplicate preparations per sample. Using the above-referenced partial least squares analysis, the percent 6-methoxy isomer, and thus the percent 5-methoxy isomer is determined for each scan and the average of the 15 spectra is calculated. The standard deviation (SD) for each set of replicates is less than about 1.0%, and the average standard deviation of all runs and replicates of a given sample is less than about 1.0%. If the standard deviation is above 1.0%, the results should be investigated. High standard deviation values are an indication of variability which may be caused by small amounts of sample burning. If this is suspected, the preparation should be run again.

The nature of data set [3]: FT-Raman determination of 5-/6-methoxy isomers in omeprazole API, classical least squares. Conditions: commercial API lots. The procedure: This method also used an FT-Raman spectrometer (Nicolet Nexus 670 with an FT-Raman accessory, 1064 nm laser, and a step and repeat sampling device). This method, too, is conducted in three stages: preparation of standards, establishing a standard curve, and analysis of samples. Typically a minimum of 4 to 5 standards are prepared. The present FT-Raman method for API and drug product analysis uses the same method set forth above to prepare and establish the standard curve, including preferred aspects, as the method set forth for the more quantitative API method relative to the number of preparations, replicates, and scans per replicate of each standard, resolution, sampling device, deconvolution of standard peaks, determination of peak area, and standard deviation for each set of replicates and the average of all runs and replicates of a given standard. […] In general, the method is performed by a ratio of a peak related to the 6-methoxy isomer (about 1627 cm^-1) to a suitable internal omeprazole band (about 1587 cm^-1). […] Correlation coefficients of the standard curve are at or above about 0.95 among all standards. […] Using the above-referenced corrected classical least squares analysis, the percent 6-methoxy isomer, and thus the percent 5-methoxy isomer, is determined for each scan, and the average of the 15 spectra is calculated.

[4] abbreviates: commercial API lots, listed as 01.
Where [5] appears, read: commercial API lots, listed as 02.
[6] abbreviates: commercial API lots, listed as 03.

Turning to `COc1ccc2[nH]c([S+]([O-])Cc3ncc(C)c(OC)c3C)nc2c1` (centres unmarked) [5(6)-methoxy-2-[[(4-methoxy-3,5-dimethyl-2-pyridinyl)-methyl]sulfinyl]-1H-benzimidazole], the “solubility as a function of HPβCD concentration” value in data set [1] (borate buffer, pH of 8) is on record as “increase linearly”; in data set [1] (phosphate buffer, pH of 11), “increase linearly”; in data set [1] (water) it was “increase linearly”.

Turning to `COc1ccc2nc([S+]([O-])Cc3ncc(C)c(OC)c3C)[nH]c2c1` (centres unmarked) [Example 1, 6-methoxy-2-[[(4-methoxy-3,5-dimethyl-2-pyridinyl)-methyl]sulfinyl]-1H-benzimidazole], in data set [2] (standards), the “% 5-isomer” value was 5.875% and the “% 6-isomer” value is 94.125%.

Consider `COc1ccc2nc([S+]([O-])Cc3ncc(C)c(OC)c3C)[nH]c2c1` (centres unmarked) [Example 1a, 6-methoxy-2-[[(4-methoxy-3,5-dimethyl-2-pyridinyl)methyl]sulfinyl]-1H-benzimidazole], for which, in data set [2] (standards), the “% 5-isomer” value is 0.000% and the “% 6-isomer” value was determined as 100.000%.

Take `COc1ccc2[nH]c([S+]([O-])Cc3ncc(C)c(OC)c3C)nc2c1` (centres unmarked) [Example 36, (5)6-methoxy-2-[[(4-methoxy-3,5-dimethyl-2-pyridinyl)-methyl]sulfinyl]-1H-benzimidazole]: in data set [2] (standards), the “% 5-isomer” value is reported as 16.005% and the “% 6-isomer” value was 83.995%.

On to `COc1ccc2[nH]c([S+]([O-])Cc3ncc(C)c(OC)c3C)nc2c1` (centres unmarked) [Example 37, (5)6-methoxy-2-[[(4-methoxy-3,5-dimethyl-2-pyridinyl)-methyl]sulfinyl]-1H-benzimidazole], for which, in data set [2] (standards), the “% 5-isomer” value was 12.246% and the “% 6-isomer” value worked out at 87.754%.

As to `COc1ccc2[nH]c([S+]([O-])Cc3ncc(C)c(OC)c3C)nc2c1` (centres unmarked) [Example 41, (5)6-methoxy-2-[[(4-methoxy-3,5-dimethyl-2-pyridinyl)-methyl]sulfinyl]-1H-benzimidazole], in data set [2] (standards), the “% 5-isomer” value is recorded as 16.414% and the “% 6-isomer” value is recorded as 83.587%.

With `COc1ccc2[nH]c([S+]([O-])Cc3ncc(C)c(OC)c3C)nc2c1` (centres unmarked) [Example 44, (5)6-methoxy-2-[[(4-methoxy-3,5-dimethyl-2-pyridinyl)-methyl]sulfinyl]-1H-benzimidazole], in data set [2] (standards), the “% 5-isomer” value worked out at 41.258% and the “% 6-isomer” value is 58.742%.

`COc1ccc2[nH]c([S+]([O-])Cc3ncc(C)c(OC)c3C)nc2c1` (centres unmarked) [Lot 01]: in data set [3] (listed as 01), the “% 5-isomer” value came out at 6.14% and the “% 6-isomer” value was 93.86%. In data set [2] (setting [4]), the “% 5-isomer” value is 7.50% and the “% 6-isomer” value is 92.50%.

With `COc1ccc2[nH]c([S+]([O-])Cc3ncc(C)c(OC)c3C)nc2c1` (centres unmarked) [Lot 02], the entries for the “% 5-isomer” value in data set [3] (listed as 02) and in data set [2] (setting [5]) were 6.56% and 8.02%, respectively. Moreover, the “% 6-isomer” value in data set [3] (listed as 02) turned out to be 93.44%; in data set [2] (setting [5]), 91.98%.

Turning to `COc1ccc2[nH]c([S+]([O-])Cc3ncc(C)c(OC)c3C)nc2c1` (centres unmarked) [Lot 03], the “% 5-isomer” value in data set [3] (listed as 03) is given as 6.40%; in data set [2] (setting [6]) it was 7.61%. For the same compound, the “% 6-isomer” value in data set [3] (listed as 03) is 93.60%; in data set [2] (setting [6]), 92.39%.

On to `COc1ccc2[nH]c([S+]([O-])Cc3ncc(C)c(OC)c3C)nc2c1` (centres unmarked) [USP], for which, in data set [2] (standards), the “% 5-isomer” value turned out to be 7.250% and the “% 6-isomer” value is 92.750%.
